Test results published in patent US20040106687A1, “Carotenoids as anti-hypertension agents” (priority 2001, published 2004).

Test system: healthy young individuals
Test: Double-blind, placebo-controlled crossover study of lycopene consumption, heart rate and blood pressure measured
Type: in vivo, human
Protocol: A double-blind, placebo-controlled crossover study of lycopene consumption in 16 healthy young individuals. Each subject was studied at baseline and then given 15 mg lycopene or placebo for two weeks and re-evaluated. A one-month lycopene administration free washout period followed, another lycopene administration was administered prior to a final evaluation. Each evaluation included measures among other parameters also heart rate and blood pressure. […]

[1] = 16 healthy young individuals, 15 mg lycopene for two weeks

## CC(C)=CCC/C(C)=C/C=C/C(C)=C/C=C/C(C)=C/C=C/C=C(C)/C=C/C=C(C)/C=C/C=C(\C)CCC=C(C)C [Lycopene, lycopene]
[1]
  Diastolic Blood Pressure: 66 ± 2 mmHg
  Systolic Blood Pressure: 114 ± 2 mmHg
During lycopene administration, 15 mg for two weeks, p<0.05
  Change in diastolic blood pressure as compared to placebo administration: significant reduction
